Source: patent US8178699B2, “Modulators of CCR9 receptor and methods of use thereof” (Pfizer Inc., priority 2008, dated 2012)
Counter-ions that a name gives are not always drawn.

Target: T1, human CCR9 receptor (Homo sapiens, UniProt P51686)
T1 construct: expressed in transfected cells
T1 sequence (P51686 1-369): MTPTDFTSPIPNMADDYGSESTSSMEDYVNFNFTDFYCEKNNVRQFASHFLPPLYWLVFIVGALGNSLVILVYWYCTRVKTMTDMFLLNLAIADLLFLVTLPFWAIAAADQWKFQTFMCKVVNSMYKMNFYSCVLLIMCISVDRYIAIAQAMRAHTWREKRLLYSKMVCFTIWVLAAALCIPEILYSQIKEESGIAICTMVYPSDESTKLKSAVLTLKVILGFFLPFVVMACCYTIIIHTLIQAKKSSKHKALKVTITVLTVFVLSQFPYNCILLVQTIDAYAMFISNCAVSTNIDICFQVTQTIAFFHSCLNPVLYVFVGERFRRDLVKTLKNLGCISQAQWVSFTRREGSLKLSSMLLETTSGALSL
Assay: CCR9 FLIPR/FlexStation Assay (inhibition of TECK induced calcium mobilization)
Assay type: cell-based
Conditions: CCR9 antagonist activity; TECK induced calcium mobilization in CCR9-Flp-CHO cells stably over expressing human CCR9; rhTECK at EC70; read-out: Binding IC50
Description: Exemplary methods are described in US Publication Nos. US2004/0180892 and US2005/0049286, which are incorporated herein by reference. An exemplary assay for determining CCR9 antagonist activity of the compounds provided herein is CCR9 FLIPR/FlexStation Assay. In certain embodiments, the following protocol is used for the assay:
CCR9 FLIPR/FlexStation Assay Protocol
Calcium assay in FLIPR/FlexStation determines inhibitors of TECK induced calcium mobilization in CCR9-Flp-CHO cells that stably over express human CCR9 receptor. CCR9-Flp-CHO cells are seeded at 25,000 cells/well in a clear bottom, black wall 96-well plate (Greiner #655090) one day prior to assay. Cells are grown in a tissue culture incubator at 37° C. with 5% CO2 for 18 to 24 hours.
Wash buffer and dye loading buffer are prepared fresh each time the assay is performed. Wash buffer is prepared according to the following protocol: 20 ml 10×HBSS (Invitrogen Gibco #14065-056), 4 ml 1M HEPES (Sigma H3784), 174 ml sterile deionized water; then add 140 mg probenecid (Sigma P8761) dissolved in 2 ml 1M NaOH (Fisher S318) to solution and pH to 7.4. This wash buffer contains 1×HBSS, 20 mM HEPES and 2.5 mM probenecid. For one 96-well plate, dye loading buffer is prepared as following: 11 ml wash buffer, 44 μl Fluo-4/pluoronic acid mix (prepared from 22 μL aliquot of 2 mM Fluo-4 (Molecular Probes F14202, 1 mg/tube)+22 μl 20% pluronic F-127 (Molecular Probes P3000MP).
Cells are loaded with dye according to the protocol below:
1. Prepare wash buffer with 1×HBSS/HEPES at room temperature
2. Prepare loading buffer (keep in dark)
3. Aspirate culture media and wash with 100 μl wash buffer per well×1
4. Add 100 μl dye loading buffer to each well
5. Incubate at 37° C. for 30 minutes
6. Aspirate loading buffer
7. Wash with 100 μl wash buffer per well×3
8. Add 100 μl wash buffer per well
9. Incubate at 37° C. for 30 minutes
10. Assay plate with FLIPR or FlexStation
10 mM stock compounds in DMSO are prepared and diluted in DMSO to 1 mM. Compounds are diluted in wash buffer to make 8 point series dilutions containing same final concentration of DMSO (1%). Compounds are tested in duplicate wells for each point. Ligand rhTECK (R&D Systems 334-TK) was diluted to 6× of its EC70 with wash buffer. Appropriate amount of 6× ligand is added to each well. Data is analyzed using XLfit3 software to calculate IC50 value of antagonist activity for each compound.
CCR9 antagonist activity of exemplary compounds was determined using CCR9 FLIPR/FlexStation Assay as described in Section 4.4 and is provided in Table 1 below. The IC50 for the compounds are represented as follows: A≦100 nM; B>100-500 nM; C>500 nM.

SMILES | IC50
Cc1cc(S(=O)(=O)Nc2ccsc2C(=O)O)ccc1N1CCCC1 [Example 32, 3-(3-methyl-4-(pyrrolidin-1-yl)phenylsulfonamido)thiophene-2-carboxylic acid, disodium salt] | > 500 nM
CC(=O)Oc1cc(C(C)(C)C)ccc1S(=O)(=O)Nc1ccsc1C(=O)O [Example 12, 3-(2-acetoxy-4-tert-butylphenylsulfonamido)thiophene-2-carboxylic acid, disodium salt] | 100 to 500 nM
O=C(O)c1sccc1NS(=O)(=O)c1ccc(OC(F)(F)F)cc1Cl [Example 50, 3-[2-chloro-4-(trifluoromethoxy)phenylsulfonamido]thiophene-2-carboxylic acid, disodium salt] | ≤ 100 nM
CC(C)(C)c1ccc(S(=O)(=O)Nc2ccsc2C(=O)O)c(-c2cccc(Cl)c2)c1 [Example 53, 3-(5-tert-butyl-3′-chlorobiphenyl-2-ylsulfonamido)thiophene-2-carboxylic acid, disodium salt] | > 500 nM
O=C(O)c1sccc1NS(=O)(=O)c1ccc(C2CCCCC2)cc1 [Example 34, 3-(4-cyclohexylphenylsulfonamido)thiophene-2-carboxylic acid, disodium salt] | 100 to 500 nM
CC(C)(C)c1ccc(S(=O)(=O)Nc2c(C(=O)O)sc3ncccc23)cc1 [Example 26, 3-(4-tert-butylphenylsulfonamido)thieno[2,3-b]pyridine-2-carboxylic acid, disodium salt] | > 500 nM
CC1(C)CCC(C)(C)c2cc(S(=O)(=O)Nc3ccsc3C(=O)O)ccc21 [Example 49, 3-(5,5,8,8-tetramethyl-5,6,7,8-tetrahydronaphthalene-2-sulfonamido)thiophene-2-carboxylic acid, disodium salt] | > 500 nM
CC(C)c1ccc(S(=O)(=O)Nc2ccsc2C(=O)O)cc1 [Example 37, 3-[4-(iso-propylphenyl)sulfonamido]thiophene-2-carboxylic acid, disodium salt] | 100 to 500 nM
CC(C)(C)c1ccc(S(=O)(=O)Nc2ccsc2C(=O)O)c(N2CCCCC2)c1 [Example 47, 3-[4-tert-Butyl-2-(piperidin-1-yl)phenylsulfonamido]thiophene-2-carboxylic acid] | 100 to 500 nM
CC(C)(C)c1ccc(S(=O)(=O)Nc2ccsc2C(=O)O)c(Br)c1 [Example 1, 3-(2-bromo-4-tert-butylphenylsulfonamido)thiophene-2-carboxylic acid, sodium salt] | ≤ 100 nM
COc1cc(S(=O)(=O)Nc2ccsc2C(=O)O)c(Cl)cc1F [Example 63, 3-(2-chloro-4-fluoro-5-methoxyphenylsulfonamido)thiophene-2-carboxylic acid, disodium salt] | > 500 nM
Cc1ccccc1-c1cccc(S(=O)(=O)Nc2ccsc2C(=O)O)c1 [Example 22, 3-(2′-methylbiphenyl-3-ylsulfonamido)thiophene-2-carboxylic acid, disodium salt] | > 500 nM
CCCCc1ccc(S(=O)(=O)Nc2ccsc2C(=O)O)c(Cl)c1 [Example 19, 3-(4-butyl-2-chlorophenylsulfonamido)thiophene-2-carboxylic acid, disodium salt] | ≤ 100 nM
CCCOc1ccccc1-c1cccc(S(=O)(=O)Nc2ccsc2C(=O)O)c1 [Example 44, 3-(2′-propoxybiphenyl-3-ylsulfonamido)thiophene-2-carboxylic acid, disodium salt] | > 500 nM
O=C(O)c1sccc1NS(=O)(=O)c1ccc2c(c1)CCCC2 [Example 21, 3-(5,6,7,8-tetrahydronaphthalene-2-sulfonamido)thiophene-2-carboxylic acid, disodium salt] | 100 to 500 nM
CC(C)(C)c1ccc(S(=O)(=O)Nc2ccsc2C(=O)O)c(-c2cncnc2)c1 [Example 5, 3-[4-tert-butyl-2-(pyrimidin-5-yl)phenylsulfonamido]thiophene-2-carboxylic acid, disodium salt] | > 500 nM
